Drawing on US12590106B2, “Spiromacrocyclic orexin 2 receptor agonists” (H. Lundbeck A/S, priority 2023, dated 2026), this text covers EC50 and Emax for 16 compounds.

The assay has as its target T1, human Ox2R (Homo sapiens, UniProt O43614).
T1 construct: The gene encoding hOx2R was subcloned into the expression plasmid pcDNA5/FRT/TO; expressed in transfected cells; host or cells: CHO Flp-In cells (pcDNA5/FRT/TO with pOG44 Flp recombinase vector, hygromycin B selection)
T1 sequence (O43614 1-444): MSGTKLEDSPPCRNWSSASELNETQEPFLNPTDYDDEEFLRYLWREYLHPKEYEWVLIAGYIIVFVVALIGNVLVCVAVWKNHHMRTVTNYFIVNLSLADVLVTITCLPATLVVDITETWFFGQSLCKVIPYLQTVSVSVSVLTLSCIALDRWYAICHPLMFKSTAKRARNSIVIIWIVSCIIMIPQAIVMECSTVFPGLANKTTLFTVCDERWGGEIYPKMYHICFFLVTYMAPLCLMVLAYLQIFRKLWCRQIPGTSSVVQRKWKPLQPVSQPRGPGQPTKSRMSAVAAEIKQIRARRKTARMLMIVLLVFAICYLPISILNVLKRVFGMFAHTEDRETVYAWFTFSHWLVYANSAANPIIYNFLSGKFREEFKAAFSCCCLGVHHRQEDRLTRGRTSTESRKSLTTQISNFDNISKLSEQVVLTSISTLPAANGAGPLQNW
In words: Measurement of OX2R agonist activity (cell-based calcium release assay). The note with it: hOx2R-CHO Flp-In cells, n≥2 tests; for EC50: intracellular calcium, read-out: EC50; for Emax: normalized to assay buffer (0%) and 10 μM Danavorexton (100%), read-out: Emax (%). An excerpt:
Measurement of OX2R Agonist Activity
The Ox2R has a broad signaling profile and couple to a range of different Gα-proteins. The cell-based calcium release assay is primarily assessing signaling through the Gαq signaling pathway, which promotes calcium mobilization via inositol triphosphate production upon activation of Ox2R.
A CHO Flp-In cell-line stably expressing the human Ox2R (hOx2R-CHO Flp-In) was established as follows: The gene encoding hOx2R was subcloned into the expression plasmid pcDNA5/FRT/TO and then transfected into CHO Flp-In cells together with the Flp recombinase vector, pOG44. Cells were cultured in growth medium: Ham's F12 (Gibco), 10% fetal bovine serum (Gibco) and 100 U/mL penicillin-streptomycin (Gibco) supplemented with hygromycin B (Thermo Fisher Scientific) as selection marker at 37° C. in the presence of 5% CO2.
To prepare the hOx2R-CHO FlpIn cells for calcium release assay, the cells were suspended in growth medium and seeded in black, clear-bottomed 384-well plates (Corning) at 10,000 cells/well. The plated cells were grown overnight at 37° C. and 5% CO2. The following day, the media was removed, and the cells were incubated with assay buffer (HBSS with 20 mM HEPES, pH 7.4) containing 2.5 mM probenecid (Thermo Fisher Scientific), 10 mM CaCl2, 0.1% pluronic F68 (Gibco) and 1× calcium-4 dye (Molecular Devices) for 1 h at 37° C. and 5% CO2. After incubation, cells were allowed to equilibrate at room temperature for 15 minutes and then loaded into FDSS7000Ex system (Hamamatsu Photonics) together with a plate containing test compounds serially diluted in assay buffer. Cells were stimulated with test compounds (online injection) and the agonist activity was determined as an increase in intracellular calcium concentration measured from the ratio of fluorescence emission at 542 nm by excitation at 480 nm. The agonist response for each applied concentration was assessed as the ratio: maximum fluorescence/average pre-stimulated fluorescence and was normalized to responses from assay buffer alone (0% response) and 10 μM Danavorexton (100% response). EC50 and Emax values were calculated from concentration-response curves by using Genedata Screener software.
(Calcium assays in cells follow changes in intracellular calcium, usually with a dye or a luminescent sensor.)

`CS(=O)(=O)N[C@H]1CC[C@@]2(Cc3cc(c(F)cc3F)-c3cccc(F)c3OCc3nc2ns3)C1` [Example 111, N-[(1′S,14R)-6,17,19-trifluorospiro[8-oxa-11-thia-12,21-diazatetracyclo[14.3.1.110,13.02,7]henicosa-1(19),2,4,6,10(21),12,16(20),17-octaene-14,3′-cyclopentane]-1′-yl]methanesulfonamide]: the EC50 – broadly, the midpoint of the concentration-response curve – was 0.98 nM and the Emax (in general, the size of the effect at its maximum, as opposed to the concentration needed) turned out to be 96%.

`CS(=O)(=O)N[C@@H]1C[C@]2(Cc3ccc(F)c(c3)-c3cc(F)cc(F)c3OCc3ccnc2n3)[C@H]2C[C@@H]12` [Example 119, N-[(1′R,2′R,5′S,15R)-4,6,20-trifluorospiro[8-oxa-13,22-diazatetracyclo[15.3.1.110,14.02,7]docosa-1(21),2,4,6,10,12,14(22),17,19-nonaene-15,4′-bicyclo[3.1.0]hexane]-2′-yl]methanesulfonamide]: the EC50 worked out at 0.52 nM and the Emax is 96%.

In the case of `CS(=O)(=O)N[C@H]1CC[C@@]2(Cc3ccc(F)c(c3)-c3cccc(F)c3OCC3=NN=C2O3)C1` [Example 71, N-[(1′S,14R)-6,19-difluorospiro[8,21-dioxa-11,12-diazatetracyclo[14.3.1.110,13.02,7]henicosa-1(19),2(7),3,5,10,12,16(20),17-octaene-14,3′-cyclopentane]-1′-yl]methanesulfonamide], the EC50 worked out at 49 nM and the Emax was found to be 97%.

For `Cc1cccc2c1OCc1coc(n1)[C@]1(CC[C@H](NS(C)(=O)=O)C1)Cc1ccc(F)c-2c1` [Example 37, N-[(1′S,14R)-19-fluoro-6-methyl-spiro[8,12-dioxa-21-azatetracyclo[14.3.1.110,13.02,7]henicosa-1(19),2,4,6,10,13(21),16(20),17-octaene-14,3′-cyclopentane]-1′-yl]methanesulfonamide], the EC50 is 1.1 nM and the Emax was determined as 96%.

As to `CS(=O)(=O)N[C@H]1C[C@@]2(Cc3ccc(F)c(c3)-c3cccc(F)c3OCc3coc2n3)C1` [Example 98, trans-N-(6,19-difluorospiro[8,12-dioxa-21-azatetracyclo[14.3.1.110,13.02,7]henicosa-1(20),2,4,6,10,13(21),16,18-octaene-14,3′-cyclobutane]-1′-yl)methanesulfonamide], the EC50 was found to be 0.87 nM and the Emax was 99%.

With `CS(=O)(=O)NC1CCC2(C1)c1nc(co1)COc1c(F)cccc1-c1cc(ccc1F)C2F` (single isomer, unassigned) [Example 77, N-[(1′S,14R,15S or 15R)-6,15,19-trifluorospiro[8,12-dioxa-21-azatetracyclo[14.3.1.110,13.02,7]henicosa-1(19),2,4,6,10,13(21),16(20),17-octaene-14,3′-cyclopentane]-1′-yl]methanesulfonamide], the EC50 stood at 1.4 nM and the Emax stood at 99%.

On to `[2H]C1([2H])Oc2ccccc2-c2cc(ccc2F)C[C@@]2(CC[C@H](NS(C)(=O)=O)C2)c2nc1co2` [Example 5, N-[(1′S,14R)-9,9-dideuterio-19-fluoro-spiro[8,12-dioxa-21-azatetracyclo[14.3.1.110,13.02,7]henicosa-1(19),2,4,6,10,13(21),16(20),17-octaene-14,3′-cyclopentane]-1′-yl]methanesulfonamide], for which the EC50 stood at 0.36 nM and the maximal response (Emax) worked out at 100%.

As for `CS(=O)(=O)N[C@H]1CC[C@@]2(Cc3ccc(Cl)c(c3)-c3cc(F)cc(F)c3OCc3coc2n3)C1` [Example 76, N-[(1′S,14R)-19-chloro-4,6-difluoro-spiro[8,12-dioxa-21-azatetracyclo[14.3.1.110,13.02,7]henicosa-1(19),2,4,6,10,13(21),16(20),17-octaene-14,3′-cyclopentane]-1′-yl]methanesulfonamide], the EC50 worked out at 0.26 nM and the maximal effect (Emax) came to 99%.

Regarding `C[C@H]1Oc2c(F)cccc2-c2cc(ccc2F)C[C@@]2(CC[C@H](NS(C)(=O)=O)C2)c2nc1co2` [Example 85, N-[(1′S,9R,14R)-6,19-difluoro-9-methyl-spiro[8,12-dioxa-21-azatetracyclo[14.3.1.110,13.02,7]henicosa-1(19),2(7),3,5,10,13(21),16(20),17-octaene-14,3′-cyclopentane]-1′-yl]methanesulfonamide], the EC50 was 2.3 nM and the Emax was 100%.

In the case of `CS(=O)(=O)N[C@H]1CC[C@@]2(CO[C@H]3CC[C@H](CC3)c3cccnc3OCc3coc2n3)C1` [Example 43, N-[(1s,1′S,14R,17s)-spiro[8,12,16-trioxa-6,22-diazatetracyclo[15.2.2.110,13.02,7]docosa-2,4,6,10,13(22)-pentaene-14,3′-cyclopentane]-1′-yl]methanesulfonamide], the half-maximal effective concentration (EC50) stood at 0.69 nM and the Emax was 100%.

Take `CS(=O)(=O)N[C@H]1CC[C@@]2(Cc3cc(ncc3F)-c3cccc(F)c3OCc3coc2n3)C1` [Example 105, N-[(1′S,14R)-6,17-difluorospiro[8,12-dioxa-19,21-diazatetracyclo[14.3.1.110,13.02,7]henicosa-1(20),2,4,6,10,13(21),16,18-octaene-14,3′-cyclopentane]-1′-yl]methanesulfonamide]: the EC50 is 6.1 nM and the Emax came to 97%.

Consider `CS(=O)(=O)N[C@H]1CC[C@@]2(Cc3cc(ccc3F)-c3c(F)ccc(F)c3OCc3coc2n3)C1` [Example 27, N-[(1′S,14R)-3,6,17-trifluorospiro[8,12-dioxa-21-azatetracyclo[14.3.1.110,13.02,7]henicosa-1(20),2,4,6,10,13(21),16,18-octaene-14,3′-cyclopentane]-1′-yl]methanesulfonamide], for which the concentration for a half-maximal effect (EC50) is 0.65 nM and the Emax was 100%.

As for `CS(=O)(=O)N[C@H]1CC[C@@]2(Cc3ccc(C(F)F)c(c3)-c3cccc(F)c3OCc3coc2n3)C1` [Example 103, N-[(1′S,14R)-19-(difluoromethyl)-6-fluoro-spiro[8,12-dioxa-21-azatetracyclo[14.3.1.110,13.02,7]henicosa-1(19),2,4,6,10,13(21),16(20),17-octaene-14,3′-cyclopentane]-1′-yl]methanesulfonamide], the EC50 stood at 3.3 nM and the Emax worked out at 99%.

With `CS(=O)(=O)N[C@H]1CC[C@@]2(Cc3ccc(F)c(c3)-c3cc(F)cc(F)c3OCc3coc2n3)C1` [Example 69, N-[(1′S,14R)-4,6,19-trifluorospiro[8,12-dioxa-21-azatetracyclo[14.3.1.110,13.02,7]henicosa-1(19),2,4,6,10,13(21),16(20),17-octaene-14,3′-cyclopentane]-1′-yl]methanesulfonamide], the EC50 is 0.2 nM and the Emax worked out at 96%.

As to `CS(=O)(=O)N[C@H]1CC[C@@]2(CO[C@H]3CC[C@H](CC3)c3nccc(n3)OCc3coc2n3)C1` [Example 1, N-[(1s,1′S,13S,16s)-spiro[7,11,15-trioxa-3,21,22-triazatetracyclo[14.2.2.12,6.19,12]docosa-2,4,6(22),9,12(21)-pentaene-13,3′-cyclopentane]-1′-yl]methanesulfonamide], the EC50 was determined as 9.7 nM and the maximal response (Emax) came to 98%.

`CS(=O)(=O)N[C@H]1CC[C@@]2(Cc3ccc(F)c(c3)-c3ccccc3OCc3coc2n3)C1` [Example 45, N-[(1′S,14R)-19-fluorospiro[8,12-dioxa-21-azatetracyclo[14.3.1.110,13.02,7]henicosa-1(19),2,4,6,10,13(21),16(20),17-octaene-14,3′-cyclopentane]-1′-yl]methanesulfonamide]: the EC50 was 0.34 nM and the Emax is 97%.
